# Assay results published in patent US20110028566A1, “COMPOSITIONS AND PRODUCTS CONTAINING CYCLOALIPHATIC DIOL ANTIMICROBIAL AGENTS AND METHODS OF USING THE COMPOSITIONS AND PRODUCTS” (EASTMAN CHEMICAL COMPANY, priority 2009, published 2011).
# Several values for one entry are separate records, joined by “and”; a condition that tells them apart may be missing. Equal entries are not always repeated.
# Experiments:
# [1] = system: Candida albicans ATCC 10231; test: MIC determination and synergy testing (Kull synergy index), microplate; type: cell-based; design: QA/a: unit not given beside the values; conditions: for QA, MIC of CHDM alone / QA/a: concentration of CHDM alone (QA, MIC): C. albicans; for QA/a: concentration of CHDM alone (QA, MIC): Table 46
# Procedure: The test cultures are listed in Table 7 along with the incubation temperatures used for growth and minimum inhibitory concentration (MIC) testing. […] C. albicans was cultured in Sabouraud dextrose broth (SDB) for approximately 44-52 hours for preparation of inoculum. A. niger was cultured on Sabouraud dextrose agar (SDA) for 3-4 days until there was confluent growth and visible spore formation. Spores were harvested from the SDA plates by flooding the surface of the plate with 5-10 mL of phosphate-buffered saline (PBS) and gently spreading the liquid across the surface of the plate with a sterile T-shaped plastic spreader (Copan Diagnostics) until there was a well-mixed suspension of spores. The resulting spore suspension was collected using a serological pipette and stored at 2-8° C. until use.
# Inoculum concentration was determined by dilution plating of the cultures or spore suspension. A serial dilution in PBS was made to 10^−8 for the bacterial cultures or 10^−5 for the fungal cultures. Fifty or 100 μL of the final dilution was spread on two Trypticase-soy agar (TSA) plates for bacteria or two SDA plates for fungi. After 24 to 48 hours plates were counted and the concentrations used in each experiment were calculated.
# The antimicrobial agents tested for synergy along with the respective diluents and working stock solution concentrations are shown below. For determination of MIC ranges, individual antimicrobial agent stock solutions were added to sterile medium to yield the highest level test concentrations, and then serially diluted in the medium to prepare the range of test concentrations. For synergy testing individual test concentrations were prepared in sterile medium, and then blended to form the desired combinations.
# MICs were determined using a high-throughput microplate method. Individual antimicrobial agents were added to TSB (pH 7.3) for bacterial testing or SDB (pH 5.6) for fungal testing at the highest concentration to be tested. A serial dilution series was prepared at a dilution ratio of 1:1.3333 such that a one log range was covered in nine dilutions. Two-hundred microliters of the diluted antimicrobial agents were dispensed into four wells each of a sterile, 96-well, flat-bottom microplate (Nalge Nunc International). Four additional wells of the highest concentration were dispensed to serve as uninoculated high-level controls. Eight additional wells containing only broth medium were also prepared, four to serve as negative controls and four as positive controls. Three wells of each antimicrobial agent dilution were inoculated with one of the test strains in Table 7. The final well of each antimicrobial agent dilution was left uninoculated to serve as a control (and means of compensating) for any absorbance/turbidity due to the test compounds.
# Microplates were inoculated using the cultures or spore suspensions prepared as described above. The S. aureus cultures were used undiluted, while the E. coli and P. aeruginosa cultures were used either undiluted or after a 1:2 dilution in sterile TSB. The C. albicans cultures were used either undiluted or following a 2-fold concentration by centrifugation. One of two means of inoculation was used to deliver a final concentration of approximately 10^5 colony-forming units (CFU)/mL of C. albicans, 10^5 spores/mL of A. niger, or 10^6 CFU/mL of bacteria. The primary method used a stainless steel pin replicator (Nalge Nunc International) mounted on a hand-operated bench-top press (Schmidt Technology Corporation) fitted with a custom-built microplate holder to dispense one microliter of each inoculum from a “master” plate containing 50-100 μL of culture into the wells of the test plate. The pin replicator was sterilized before and between inoculations by immersing in ethanol and flaming. The alternative method of inoculation was by directly pipetting 20 μL of a 1:20 dilution of each culture or spore suspension into the appropriate wells of the test plates.
# [2] = system: biodiesel-acclimated bioslime; test: 15-day biofouling control in B-100 biodiesel:Bushnell-Haas broth, visual turbidity; type: cell-based; design: key to Growth (visual turbidity rating): 0 = No Growth; 1 = Slight Growth; 2 = Moderate Growth; 3 = Heavy Growth; conditions: 15 days, 22° C.; for Enhancement of the preservative (inhibitory) action of Killem biocide (in words): B-100 biodiesel, bioslime or trivalent bacterial-fungal inocula (Tables 54 & 55); for Growth (visual turbidity rating): biocide 0 mg/L, bioslime inoculum 50 uL
# Procedure: Antimicrobial efficacy data (Table 54 & Table 55) were obtained for 1,4-CHDM with and without biocide in protection of B-100 biodiesel from microbial growth derived via either biodiesel-acclimated bioslime or trivalent bacterial-fungal inocula after 15-day exposure at 22° C. This testing was via a visual turbidity methodology. Neither micro-liter plates nor automatic plate reader could be used in this experiment due to the inherent biphasic nature of the system. B-100 biodiesel:Bushnell-Haas broth was used, which is a minimal salts medium specially designed for evaluating growth of microorganisms on hydrocarbons. Samples were evaluated visually (i.e., the more the turbidity, the more the growth, the less the turbidity, the less the growth, and no turbidity means no growth).
structure (smiles),measurement,setting,value
"OCC1CCC(CO)CC1 (centres unmarked) [1,4-CHDM, 1,4-cyclohexanedimethanol]","QA, MIC of CHDM alone","[1]; day 2 of incubation, plate 128B (MP series)",3.00 weight percent
same,"QA, MIC of CHDM alone","[1]; day 2 of incubation, plates 116B, 240B, 252B (PE series)",5.85 weight percent and 6.67 weight percent and 3.56 weight percent
same,"QA, MIC of CHDM alone","[1]; day 2 of incubation, plates 117B, 226B, 254B (CG series)",5.63 weight percent and 5.00 weight percent and 3.56 weight percent
same,"QA, MIC of CHDM alone","[1]; day 3 of incubation, plate 128B (MP series)",4.00 weight percent
same,"QA, MIC of CHDM alone","[1]; day 3 of incubation, plates 116B, 240B, 252B (PE series)",4.75 weight percent and 5.85 weight percent and 6.67 weight percent
same,"QA, MIC of CHDM alone","[1]; day 3 of incubation, plates 117B, 254B (CG series)",4.75 weight percent and 6.67 weight percent
same,QA/a,"[1]; CHDM alone (QA) or in combination with BA:DHA (a), plate 131B, day 3",5.33
same,QA/a,"[1]; CHDM alone (QA) or in combination with BA:DHA (a), plate 131B, day 4",5.33
same,QA/a,"[1]; CHDM alone (QA) or in combination with BA:DHA (a), plate 239B, day 2",5.85
same,QA/a,"[1]; CHDM alone (QA) or in combination with BA:DHA (a), plate 239B, day 3",5.85
same,QA/a,"[1]; CHDM alone (QA) or in combination with BA:DHA (a), plate 258B, day 2",5.00
same,QA/a,"[1]; CHDM alone (QA) or in combination with BA:DHA (a), plate 258B, day 3",6.67
same,QA/a,"[1]; CHDM alone (QA) or in combination with DMDM hydantoin (a), plate 241B, day 2",5.85
same,QA/a,"[1]; CHDM alone (QA) or in combination with DMDM hydantoin (a), plate 241B, day 3",5.85
same,QA/a,"[1]; CHDM alone (QA) or in combination with DMDM hydantoin (a), plate 244B, day 2",6.00
same,QA/a,"[1]; CHDM alone (QA) or in combination with DMDM hydantoin (a), plate 244B, day 3",8.00
same,QA/a,"[1]; CHDM alone (QA) or in combination with DMDM hydantoin (a), plate 263B, day 2",8.00
same,QA/a,"[1]; CHDM alone (QA) or in combination with DMDM hydantoin (a), plate 263B, day 3",8.00
same,QA/a,"[1]; CHDM alone (QA) or in combination with DMDM hydantoin (a), plate 264B, day 2",6.67
same,QA/a,"[1]; CHDM alone (QA) or in combination with DMDM hydantoin (a), plate 264B, day 3",6.67
same,QA/a,"[1]; CHDM: MIC alone (QA) or conc. in combination with CP (a), plate 130B, day 2",3.00
same,QA/a,"[1]; CHDM: MIC alone (QA) or conc. in combination with CP (a), plate 130B, day 3",4.00
same,QA/a,"[1]; CHDM: MIC alone (QA) or conc. in combination with CP (a), plate 227B, day 2",5.63
same,QA/a,"[1]; CHDM: MIC alone (QA) or conc. in combination with CP (a), plate 227B, day 3",5.63
same,QA/a,"[1]; CHDM: MIC alone (QA) or conc. in combination with CP (a), plate 256B, day 2",6.67
same,QA/a,"[1]; CHDM: MIC alone (QA) or conc. in combination with CP (a), plate 256B, day 3",6.67
same,QA/a,"[1]; CHDM: MIC alone (QA) or conc. in combination with MIT (a), plate 162B, day 3",5.33
same,QA/a,"[1]; CHDM: MIC alone (QA) or conc. in combination with MIT (a), plate 200B, day 2",6.23
same,QA/a,"[1]; CHDM: MIC alone (QA) or conc. in combination with MIT (a), plate 200B, day 3",6.23
same,"QA/a: concentration of CHDM alone (QA, MIC)",[1]; Day 2,4.00 weight percent and 3.38 weight percent
same,"QA/a: concentration of CHDM alone (QA, MIC)",[1]; Day 3,4.50 weight percent
same,Enhancement of the preservative (inhibitory) action of Killem biocide (in words),"[2]; Killem biocide 200 ppm, 1,4-CHDM 0.2-0.5 wt %",enhanced the preservative (inhibitory) action of the Killem biocide
same,Enhancement of the preservative (inhibitory) action of Killem biocide (in words),"[2]; biocide 50 ppm or 100 ppm, or 1,4-CHDM 0.1 wt %",No enhancement
same,Growth (visual turbidity rating),"[2]; 1,4-CHDM 0.1% (v/v)",3
same,Growth (visual turbidity rating),"[2]; 1,4-CHDM 0.2% (v/v)",3
same,Growth (visual turbidity rating),"[2]; 1,4-CHDM 0.3% (v/v)",3
same,Growth (visual turbidity rating),"[2]; 1,4-CHDM 0.4% (v/v)",3
same,Growth (visual turbidity rating),"[2]; 1,4-CHDM 0.5% (v/v)",3
